In PubChem BioAssay AID248 (DTP/NCI, 2004):
Values joined by “and” are separate entries in the source; they are usually repeats but may differ in a detail not shown here. Equal entries are not always repeated. Inconclusive results and toxic doses are left out. Cut-off read from the data, not from the text of the source: active = T/C of 150% or more; inactive = T/C below 125%.

System: L1210 leukemia ip in BDF1 mice, survival T/C
Assay: NCI In Vivo Anticancer Drug Screen. Data for tumor model L1210 Leukemia (intraperitoneal) in B6D2F1 (BDF1) mice
Settings: endpoint: mean survival time, higher = longer survival
Outline: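 Ratio derived from survival: compound-dosed mice over vehicle-dosed mice, all bearing a transplantable tumor.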

[1] = dose: 25.0 mg/kg/injection, schedule: Q01DX009 (ip), vehicle: Klucel (hydroxypropylcellulose) (HPC)
[2] = dose: 50.0 mg/kg/injection, schedule: Q01DX009 (ip), vehicle: Klucel (hydroxypropylcellulose) (HPC)
[3] = dose: 100.0 mg/kg/injection, schedule: Q04DX003 (ip), vehicle: Klucel (hydroxypropylcellulose) (HPC)
[4] = dose: 200.0 mg/kg/injection, schedule: Q04DX003 (ip), vehicle: Klucel (hydroxypropylcellulose) (HPC)
[5] = dose: 400.0 mg/kg/injection, schedule: Q04DX003 (ip), vehicle: Klucel (hydroxypropylcellulose) (HPC)
[6] = dose: 100.0 mg/kg/injection, schedule: Q04DX003 (ip), vehicle: saline with Tween-80
[7] = dose: 200.0 mg/kg/injection, schedule: Q04DX003 (ip), vehicle: saline with Tween-80
[8] = dose: 100.0 mg/kg/injection, schedule: Q04DX003 (ip), vehicle: saline
[9] = dose: 400.0 mg/kg/injection, schedule: Q04DX003 (ip), vehicle: saline with Tween-80
[10] = dose: 25.0 mg/kg/injection, schedule: Q04DX003 (ip), vehicle: saline
[11] = dose: 50.0 mg/kg/injection, schedule: Q04DX003 (ip), vehicle: saline
[12] = dose: 100.0 mg/kg/injection, schedule: Q01DX009 (ip), vehicle: saline
[13] = dose: 200.0 mg/kg/injection, schedule: Q01DX Z (ip), vehicle: methylcellulose (MC)

Measured: T/C

C=CCNC(=S)Nc1cccc(Cl)c1C
inactive: dose: 12.5 mg/kg/injection, schedule: Q01DX009 (ip), vehicle: Klucel (hydroxypropylcellulose) (HPC) 87 % of control | [1] 101 % of control | [2] 96 % of control | [3] 90 % of control | [4] 100 % of control | [5] 94 % of control

COc1ccc(NC(C)=O)cc1OC
inactive: dose: 100.0 mg/kg/injection, schedule: Q04DX002 (ip), vehicle: saline 95 % of control | dose: 200.0 mg/kg/injection, schedule: Q04DX002 (ip), vehicle: saline 98 % of control | dose: 400.0 mg/kg/injection, schedule: Q04DX002 (ip), vehicle: saline 92 % of control

CSC(N(C)C)=[N+](C)C
inactive: dose: 15.0 mg/kg/injection, schedule: Q01DX Z (ip), vehicle: methylcellulose (MC) 101 % of control | dose: 30.0 mg/kg/injection, schedule: Q01DX Z (ip), vehicle: methylcellulose (MC) 105 % of control | dose: 60.0 mg/kg/injection, schedule: Q01DX Z (ip), vehicle: methylcellulose (MC) 105 % of control | dose: 60.0 mg/kg/injection, schedule: Q01DX Z (oral), vehicle: methylcellulose (MC) 95 % of control | [6] 100 % of control | dose: 120.0 mg/kg/injection, schedule: Q01DX Z (ip), vehicle: methylcellulose (MC) 103 % of control | dose: 120.0 mg/kg/injection, schedule: Q01DX Z (oral), vehicle: methylcellulose (MC) 97 % of control | [7] 107 % of control

O=C(Nc1cccc2nsnc12)c1ccc(C(=O)Nc2cccc3nsnc23)cc1
inactive: dose: 100.0 mg/kg/injection, schedule: Q01DX001 (ip), vehicle: other 94 % of control | dose: 200.0 mg/kg/injection, schedule: Q01DX001 (ip), vehicle: other 88 % of control | dose: 400.0 mg/kg/injection, schedule: Q01DX001 (ip), vehicle: other 98 % of control

O=c1cc(Br)c(=O)c2cc(Br)cc(Br)c2[nH]1
inactive: [1] 95 % of control | [2] 98 % of control | dose: 100.0 mg/kg/injection, schedule: Q01DX009 (ip), vehicle: Klucel (hydroxypropylcellulose) (HPC) 90 % of control | [3] 98 % of control | dose: 200.0 mg/kg/injection, schedule: Q01DX009 (ip), vehicle: Klucel (hydroxypropylcellulose) (HPC) 87 % of control | [4] 106 % of control | dose: 400.0 mg/kg/injection, schedule: Q01DX009 (ip), vehicle: Klucel (hydroxypropylcellulose) (HPC) 89 % of control | [5] 88 % of control

N#CCCCN1CCOCC1
inactive: [8] 96 % of control | dose: 200.0 mg/kg/injection, schedule: Q04DX003 (ip), vehicle: saline 96 % of control | dose: 400.0 mg/kg/injection, schedule: Q04DX003 (ip), vehicle: saline 104 % of control

Fc1ccc(N=C2c3ccccc3-c3ccccc32)cc1
inactive: [6] 93 % of control | [7] 93 % of control | [9] 95 % of control

CCC(CO)N=Cc1ccccc1O.CCC(CO)N=Cc1ccccc1O.[Ni] (configuration not stated)
inactive: dose: 9.5 mg/kg/injection, schedule: Q01DX001 (ip), vehicle: other 102 % of control | dose: 19.0 mg/kg/injection, schedule: Q01DX001 (ip), vehicle: other 102 % of control | dose: 38.0 mg/kg/injection, schedule: Q01DX001 (ip), vehicle: other 94 % of control | dose: 75.0 mg/kg/injection, schedule: Q01DX001 (ip), vehicle: other 111 % of control

CCN(CC)CCn1c2ccncc2c2cnccc21
inactive: [10] 96 % of control | [11] 101 % of control | [8] 103 % of control

NC1(C(=O)O)CCC(N)(C(=O)O)CC1 (configuration not stated)
inactive: dose: 75.0 mg/kg/injection, schedule: Q01DX001 (ip), vehicle: saline 110 % of control | dose: 150.0 mg/kg/injection, schedule: Q01DX001 (ip), vehicle: saline 100 % of control

CCC(CC)N1CCCS1(=O)=O
inactive: [12] 93 % of control | dose: 200.0 mg/kg/injection, schedule: Q01DX009 (ip), vehicle: saline 102 % of control | dose: 400.0 mg/kg/injection, schedule: Q01DX009 (ip), vehicle: saline 96 % of control

Cc1ccc(NC(=S)NNC(=S)NNc2ccccc2)cc1
inactive: dose: 100.0 mg/kg/injection, schedule: Q04DX002 (ip), vehicle: Klucel (hydroxypropylcellulose) (HPC) 86 % of control | dose: 200.0 mg/kg/injection, schedule: Q04DX002 (ip), vehicle: Klucel (hydroxypropylcellulose) (HPC) 94 % of control

Cc1ccc(Nc2cc(=S)nc(N)[nH]2)cc1Cl
inactive: dose: 100.0 mg/kg/injection, schedule: Q01DX Z (ip), vehicle: methylcellulose (MC) 97 % of control | [13] 96 % of control

CCC12CCC(Br)C(C1)OC2=O (configuration not stated)
inactive: [6] 98 % of control | [7] 91 % of control | [9] 93 % of control

CO[C@@H]1[C@@H](OC2OC(C)C(OC3CC(C)(O)C(OC(=O)CC(C)C)C(C)O3)C(N(C)C)C2O)[C@@H](CC=O)C[C@@H](C)C(=O)/C=C/C2O[C@H]2C[C@@H](C)OC(=O)C[C@H]1OC(C)=O (some centres not stated)
inactive: dose: 50.0 mg/kg/injection, schedule: Q01DX Z (ip), vehicle: other 103 % of control | dose: 100.0 mg/kg/injection, schedule: Q01DX001 (ip), vehicle: water 108 % of control | dose: 100.0 mg/kg/injection, schedule: Q01DX015 (ip), vehicle: water 102 % of control | dose: 100.0 mg/kg/injection, schedule: Q01DX Z (ip), vehicle: other 110 % of control | dose: 100.0 mg/kg/injection, schedule: Q#A X030 (ip), vehicle: water 108 % of control and 92 % of control | dose: 150.0 mg/kg/injection, schedule: Q01DX Z (ip), vehicle: other 105 % of control | dose: 150.0 mg/kg/injection, schedule: Q#A X030 (ip), vehicle: water 97 % of control | dose: 200.0 mg/kg/injection, schedule: Q01DX001 (ip), vehicle: water 106 % of control | dose: 200.0 mg/kg/injection, schedule: Q01DX015 (ip), vehicle: water 118 % of control | [13] 118 % of control | dose: 200.0 mg/kg/injection, schedule: Q01DX Z (ip), vehicle: other 105 % of control | dose: 200.0 mg/kg/injection, schedule: Q#A X030 (ip), vehicle: water 118 % of control | dose: 250.0 mg/kg/injection, schedule: Q01DX Z (ip), vehicle: methylcellulose (MC) 118 % of control | dose: 250.0 mg/kg/injection, schedule: Q01DX Z (ip), vehicle: other 115 % of control | dose: 300.0 mg/kg/injection, schedule: Q01DX015 (ip), vehicle: water 101 % of control and 118 % of control | dose: 300.0 mg/kg/injection, schedule: Q01DX Z (ip), vehicle: methylcellulose (MC) 116 % of control | dose: 350.0 mg/kg/injection, schedule: Q01DX Z (ip), vehicle: methylcellulose (MC) 116 % of control | dose: 400.0 mg/kg/injection, schedule: Q01DX001 (ip), vehicle: water 101 % of control | dose: 400.0 mg/kg/injection, schedule: Q01DX015 (ip), vehicle: water 87 % of control | dose: 600.0 mg/kg/injection, schedule: Q01DX001 (ip), vehicle: water 110 % of control

CC1(C)N=C(N)N=C(N)N1c1cccc(CN)c1
inactive: dose: 25.0 mg/kg/injection, schedule: Q01DX009 (ip), vehicle: saline 101 % of control | [10] 101 % of control | dose: 50.0 mg/kg/injection, schedule: Q01DX009 (ip), vehicle: saline 102 % of control and 103 % of control | [11] 103 % of control | [12] 98 % of control and 86 % of control | [8] 102 % of control and 105 % of control

COC(=O)C1=C(C(=O)OC)C2C=CC1C1(C)N=C(OC)C21C (configuration not stated)
inactive: dose: 100.0 mg/kg/injection, schedule: Q04DX002 (ip), vehicle: saline with Tween-80 100 % of control | dose: 200.0 mg/kg/injection, schedule: Q04DX002 (ip), vehicle: saline with Tween-80 100 % of control | dose: 400.0 mg/kg/injection, schedule: Q04DX002 (ip), vehicle: saline with Tween-80 102 % of control

Cc1ncccc1CCO
inactive: dose: 100.0 mg/kg/injection, schedule: Q01DX001 (ip), vehicle: saline 96 % of control | dose: 200.0 mg/kg/injection, schedule: Q01DX001 (ip), vehicle: saline 100 % of control | dose: 400.0 mg/kg/injection, schedule: Q01DX001 (ip), vehicle: saline 102 % of control

O=C(O)C[As](=O)(O)O
inactive: dose: 30.0 mg/kg/injection, schedule: Q01DX009 (ip), vehicle: saline 90 % of control | dose: 60.0 mg/kg/injection, schedule: Q01DX009 (ip), vehicle: saline 97 % of control
